Reference: ChEMBL document CHEMBL2016509, “Design, synthesis and cytotoxic activities of novel hybrid compounds between 2-phenylbenzofuran and imidazole” (Bioorg Med Chem Lett, 2012)

Tests used:
[1] = test system: SW480; assay: Cytotoxicity against human SW480 cells after 48 hrs by MTT assay; format: functional, cell-based; details: SW480, 48 h
[2] = test system: MCF7; assay: Cytotoxicity against human MCF7 cells after 48 hrs by MTT assay; format: functional, cell-based; details: MCF7, 48 h
[3] = test system: A549; assay: Cytotoxicity against human A549 cells after 48 hrs by MTT assay; format: functional, cell-based; details: A549, 48 h
[4] = test system: HL-60; assay: Cytotoxicity against human HL60 cells after 48 hrs by MTT assay; format: functional, cell-based; details: HL-60, 48 h
[5] = test system: SMMC-7721; assay: Cytotoxicity against human SMMC7721 cells after 48 hrs by MTT assay; format: functional, cell-based; details: SMMC-7721, 48 h
[6] = test system: SMMC-7721; assay: Ratio of DDP IC50 to compound IC50 for human SMMC7721 cells; format: functional

| Structure (SMILES) | IC50 [1] [µM] | IC50 [2] [µM] | IC50 [3] [µM] | IC50 [4] [µM] | IC50 [5] [µM] | Ratio IC50 [6] |
| --- | --- | --- | --- | --- | --- | --- |
| O=C(c1ccccc1)C(c1ccccc1)[n+]1ccn(-c2ccc(-c3cc4ccccc4o3)cc2)c1 (stereo unspecified) | 6.93 | 6.9 | 6.79 | 2.7 | 3.31 | – |
| Brc1ccccc1C[n+]1ccn(-c2ccc(-c3cc4ccccc4o3)cc2)c1 | 12.7 | 14.3 | 9.77 | 1.97 | 4.38 | – |
| c1ccc(C[n+]2ccn(-c3ccc(-c4cc5ccccc5o4)cc3)c2)cc1 | 19.9 | 26.9 | 25.4 | 5.37 | 15.1 | – |
| O=C(C[n+]1ccn(-c2ccc(-c3cc4ccccc4o3)cc2)c1)c1ccc(O)cc1 | > 40 | > 40 | > 40 | > 40 | > 40 | – |
| O=C(C[n+]1ccn(-c2ccc(-c3cc4ccccc4o3)cc2)c1)c1ccc(Br)cc1 | 2.85 | 2.84 | 8.46 | 3.15 | 3.39 | – |
| c1ccc2oc(-c3ccc(-n4ccnc4)cc3)cc2c1 | > 40 | > 40 | > 40 | > 40 | > 40 | – |
| O=C(C[n+]1ccn(-c2ccc(-c3cc4ccccc4o3)cc2)c1)c1ccc(F)cc1 | 16.8 | 16.7 | 19.7 | 12.3 | 13.5 | – |
| O=C(C[n+]1ccn(-c2ccc(-c3cc4ccccc4o3)cc2)c1)c1ccccc1 | 10.3 | 11.9 | 12.9 | 2.61 | 3.71 | – |
| CCCC[n+]1ccn(-c2ccc(-c3cc4ccccc4o3)cc2)c1 | > 40 | 31.4 | 21.7 | 11.8 | 12.7 | – |
| O=C(C[n+]1ccn(-c2ccc(-c3cc4ccccc4o3)cc2)c1)c1ccc2ccccc2c1.[Br-] | 3.38 | 5.87 | 10.9 | 2.49 | 1.65 | 5.4 |
| COc1ccc(C(=O)C[n+]2ccn(-c3ccc(-c4cc5ccccc5o4)cc3)c2)cc1 | 6.93 | 11.3 | 9.79 | 2.26 | 3.71 | – |
| C=CC[n+]1ccn(-c2ccc(-c3cc4ccccc4o3)cc2)c1 | > 40 | 13.7 | 33.5 | 14.5 | 27 | – |
